We go through 10 compounds from ChEMBL document CHEMBL1201862, “PubChem BioAssay data set” (2004).

SMILES strings stand for the structures.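 Assay format: 96-well plates, 48-hour exposure. GI50 marks 50% less growth.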 Active and inactive are the calls of the source. No stated cut-off is given here; in the data, active = GI50 up to about 1.1 µM and inactive = higher.

Holding throughout (experiment): NCI anticancer screen, dose series, 48 h
Assay [1] relates to MDA-N.
In assay [2] the test system is SR.
In assay [3] the test system is SF-295.
The test system of assay [4] is SK-MEL-5.
In assay [5] the test system is OVCAR-8.
Assay [6] concerns HCT-116.
Assay [7] relates to SF-539.
For assay [8], the system named is NCI-H522.
Assay [9] relates to OVCAR-4.
The test system of assay [10] is U-251.
The subject of assay [11] is Hs-578T.
Assay [12] deals with OVCAR-5.
Assay [13] deals with HCC 2998.
Assay [14] deals with HOP-92.
Assay [15] has as its system SF-268.
Assay [16] concerns SNB-75.
Assay [17] concerns 786-0.
The test system of assay [18] is HT-29.
The test system of assay [19] is CAKI-1.
In assay [20] the test system is MDA-MB-231.

For `CC12NC(=C(C#N)C#N)C(C#N)=C3NC(N)=C(C#N)C(=C31)Oc1ccccc12` (stereo unspecified), the GI50 was 14.6 µM (inactive) in assay [1]; 2.59 µM (inactive) in assay [2]; 20 µM (inactive) in assay [3]; 5.05 µM (inactive) in [4]; 10.9 µM (inactive) in assay [5]; 4.53 µM (inactive) in [6]. Moreover, the GI50 in [7] was 4.32 µM (inactive); in assay [8], 56.2 µM (inactive); in assay [9] it was 62.1 µM (inactive); in [10] it was 18.1 µM (inactive); in assay [11], 6.46 µM (inactive); in [12], 47.8 µM (inactive). The GI50 in assay [13] was 27.4 µM (inactive); in [14], > 21.5 µM (inactive); in [15], 10.4 µM (inactive); in assay [16], > 57.1 µM (inactive); in [17] it was 18.5 µM (inactive); in assay [18], 7.06 µM (inactive). The values for the GI50 in [19] and in assay [20] were > 29.4 µM (inactive) and > 30.1 µM (inactive), respectively.

With `CC(C)OP(=O)(OC(C)C)C(C(C)C)N(C)/C(N)=N/C#N` (stereo unspecified), the GI50 in assay [1], in [2], in assay [3], in [4], in assay [5] and in [6] was > 100 µM (inactive) throughout. Further, the GI50 in assay [7], in assay [8], in assay [9], in assay [10], in [11] and in [13] was > 100 µM (inactive) throughout. For the same compound, the GI50 in assay [14] is > 100 µM (inactive); in assay [15], > 100 µM (inactive); in assay [16], > 100 µM (inactive); in assay [17], > 10 µM (inactive); in assay [18], > 100 µM (inactive); in assay [19] it was > 100 µM (inactive). In addition, the GI50 in assay [20] is > 100 µM (inactive).

As for `CCOC(=O)Cc1csc(NC(NC(=O)OCC)(C(=O)OCC)C(F)(F)F)n1` (stereo unspecified), the GI50 in assay [1], in assay [2], in assay [3], in assay [4], in assay [5] and in assay [6] was > 100 µM (inactive) in each case. The GI50 is > 100 µM (inactive) in assay [7]; 16.9 µM (inactive) in [8]; > 100 µM (inactive) in assay [9]; > 100 µM (inactive) in [10]; > 100 µM (inactive) in [11]; > 100 µM (inactive) in assay [12]. In addition, the GI50 is > 100 µM (inactive) in assay [13]; 56.6 µM (inactive) in assay [14]; > 100 µM (inactive) in [15]; > 100 µM (inactive) in assay [16]; > 100 µM (inactive) in [17]; > 100 µM (inactive) in assay [18]. In addition, the GI50 in assay [19] and in assay [20] was > 100 µM (inactive) throughout.

In the case of `C=C1c2nc3ccccc3n2C=C(c2ccc(OC)cc2)N1c1ccc(OCCN2CCOCC2)cc1`, the GI50 in [1] was > 75.2 µM (inactive); in assay [2], 4.41 µM (inactive); in assay [3] it was 41.7 µM (inactive); in assay [4], 8.45 µM (inactive); in assay [5], 6.03 µM (inactive); in [6], 21.9 µM (inactive). Besides, the GI50 in assay [7] was > 100 µM (inactive); in [8], 1.43 µM (inactive); in assay [9] it was 11.1 µM (inactive); in assay [10], > 93.3 µM (inactive); in assay [11], 4.7 µM (inactive); in assay [12] it was > 100 µM (inactive). For the same compound, the GI50 in assay [13] is 86.3 µM (inactive); in [14], > 40.9 µM (inactive); in assay [16], > 100 µM (inactive); in assay [17], 36.9 µM (inactive); in assay [18], 6.24 µM (inactive); in assay [19], 90.6 µM (inactive). In addition, the GI50 in [20] is > 86.1 µM (inactive).

In the case of `O=C1N(C2CCCCC2)C(=O)N1C1CCCCC1`, the GI50 in assay [1] is 3.97 µM (inactive); in [2] it was 0.232 µM (active); in [3] it was 0.29 µM (active); in [4] it was 0.439 µM (active); in assay [5], 0.0929 µM (active); in [6], 0.113 µM (active). The GI50 is 1.22 µM (inactive) in assay [7]; 0.328 µM (active) in [8]; 1.68 µM (inactive) in assay [9]; 0.388 µM (active) in [10]; 0.0409 µM (active) in [11]; 1.83 µM (inactive) in [12]. The GI50 in assay [13] is 1.16 µM (inactive); in [14], 0.149 µM (active); in [15], 0.75 µM (active); in [16], 0.142 µM (active); in [17] it was 0.362 µM (active); in assay [18] it was 0.701 µM (active). Also, the GI50 was 1.04 µM (active) in assay [19] and 1.33 µM (inactive) in assay [20].

As for `C/C(CC(O)(C(F)(F)F)C(F)(F)F)=N\NC(N)=O`, the GI50 in assay [1], in assay [2], in assay [3], in assay [4], in assay [5] and in assay [6] was > 10 µM (inactive) in each case. For the same compound, the GI50 in assay [7], in assay [8], in assay [9], in [10], in assay [11] and in assay [13] was > 10 µM (inactive) throughout. The GI50 in assay [14], in assay [15], in [16], in [17], in [18] and in assay [19] was > 10 µM (inactive) each time. Moreover, in assay [20], the GI50 is > 10 µM (inactive).

`Cc1cc(S(=O)(=O)Nc2nc3cccnc3[nH]2)c(S)cc1Cl`: the GI50 in assay [1] was > 100 µM (inactive); in assay [2], > 100 µM (inactive); in [3], 58.1 µM (inactive); in [4], 71.9 µM (inactive); in [5], > 100 µM (inactive); in assay [6] it was > 100 µM (inactive). Also, the GI50 is > 100 µM (inactive) in assay [7]; 70.5 µM (inactive) in assay [8]; 79.4 µM (inactive) in assay [9]; 63.2 µM (inactive) in [10]; 74 µM (inactive) in [11]; > 100 µM (inactive) in assay [12]. Further, the GI50 is > 100 µM (inactive) in assay [13]; > 100 µM (inactive) in [14]; 79.1 µM (inactive) in assay [15]; > 100 µM (inactive) in assay [16]; > 100 µM (inactive) in assay [17]; > 100 µM (inactive) in [18]. Also, the GI50 is > 100 µM (inactive) in [19] and 45.3 µM (inactive) in assay [20].

As for `CC(=O)Nc1ccc(NS(=O)(=O)c2ccc3nc(C)n(NS(=O)(=O)c4ccc(NC(C)=O)cc4)c(=O)c3c2)cc1`, the GI50 in assay [1], in assay [2], in assay [3], in [4], in assay [5] and in assay [6] was > 100 µM (inactive) throughout. Also, the GI50 was > 100 µM (inactive) in assay [7]; > 60.7 µM (inactive) in [8]; > 100 µM (inactive) in assay [9]; > 100 µM (inactive) in assay [10]; > 100 µM (inactive) in assay [11]; > 100 µM (inactive) in assay [12]. For the same compound, the GI50 in assay [13], in assay [14], in assay [15], in assay [16], in [17] and in assay [18] was > 100 µM (inactive) throughout. The GI50 in [19] and in [20] was > 100 µM (inactive) in each case.

As to `COc1cc2c(cc1OC)C/C(=N\O)c1cc(OC)c(OC)cc1/C=C\2`, the GI50 in assay [1] was 1.42 µM (inactive); in [2], 1.66 µM (inactive); in assay [3], 3.74 µM (inactive); in assay [4], 1.95 µM (inactive); in assay [5], 10.4 µM (inactive); in assay [6], 3.82 µM (inactive). Further, the GI50 in assay [7] is 4.22 µM (inactive); in assay [8], 1.01 µM (active); in assay [9], 55.5 µM (inactive); in assay [10] it was 4.66 µM (inactive); in assay [11], 2.12 µM (inactive); in assay [13], 2.95 µM (inactive). Besides, the GI50 in assay [14] is 43.8 µM (inactive); in assay [15], 6.24 µM (inactive); in assay [16] it was 5.31 µM (inactive); in assay [17], 5.52 µM (inactive); in assay [18] it was 3.67 µM (inactive); in [19], 3.61 µM (inactive). In addition, the GI50 in [20] was 5.87 µM (inactive).

`COc1cccc(C2c3cc4c(cc3OC(NNC(N)=O)C2C)OCO4)c1O` (stereo unspecified): the GI50 in assay [1] is 0.213 µM (active); in assay [2] it was 1.64 µM (inactive); in [3], 0.593 µM (active); in assay [4], 0.345 µM (active); in assay [5], 2.46 µM (inactive); in assay [6], 0.834 µM (active). The GI50 was 0.766 µM (active) in [7]; 0.871 µM (active) in assay [8]; 38.8 µM (inactive) in assay [9]; 1.07 µM (active) in [10]; 0.741 µM (active) in assay [11]; 6.12 µM (inactive) in assay [12]. For the same compound, the GI50 in assay [13] is 1.8 µM (inactive); in [14], 0.269 µM (active); in assay [15] it was 3.37 µM (inactive); in [16] it was 4.33 µM (inactive); in [17], 1.52 µM (inactive); in assay [18], 1.7 µM (inactive). Besides, the values for the GI50 in assay [19] and in assay [20] were 3.11 µM (inactive) and 3.94 µM (inactive), respectively.
